# Assay results taken from US8168632B2, “Bicyclic amide derivatives for the treatment of respiratory disorders” (Cortex Pharmaceuticals, Inc., priority 2007, dated 2012).
# Test system: AMPA receptor
# Test: In vivo electrophysiology (field EPSP in dentate gyrus of anesthetized animals)
# Details: 10 mpk i.p., perforant path stimulation
# Method: The electrophysiological effects of the invention compounds were tested in vivo in anesthetized animals according to the following procedures. Animals are maintained under anesthesia by phenobarbital administered using a Hamilton syringe pump. Stimulating and recording electrodes are inserted into the perforant path and dentate gyrus of the hippocampus, respectively. Once electrodes are implanted, a stable baseline of evoked responses are elicited using single monophasic pulses (100 μs pulse duration) delivered at 3/min to the stimulating electrode. Field EPSPs are monitored until a stable baseline is achieved (about 20-30 min), after which a solution of test compound is injected intraperitoneally and evoked field potentials are recorded. Evoked potentials were recorded for approximately 2 h following drug administration or until the amplitude of the field EPSP returns to baseline. In the latter instance, it is common that an iv administration is also carried out with an appropriate dose of the same test compound. Invention compounds were assayed in the in vivo electrophysiology assay described above and data for representative test compounds is shown in the Table.
# The electrophysiological effects of invention compounds were tested in vivo in anesthetized animals according to the following procedures.
# Animals are maintained under anesthesia by phenobarbital administered using a Hamilton syringe pump. Stimulating and recording electrodes are inserted into the perforant path and dentate gyrus of the hippocampus, respectively. Once electrodes are implanted, a stable baseline of evoked responses are elicited using single monophasic pulses (100 μs pulse duration) delivered at 3/min to the stimulating electrode. Field EPSPs are monitored until a stable baseline is achieved (about 20-30 min), after which a solution of test compound is injected intraperitoneally and evoked field potentials are recorded. Evoked potentials are recorded for approximately 2 h following drug administration or until the amplitude of the field EPSP returns to baseline. […]
row,Structure (SMILES),In vivo Electrophysiology: % increase in the amplitude of the field EPSP in the dentate gyrus of rat [%]
1,"O=C(c1ccc2nonc2c1)N1C2CCC1COC2 [Example 1, [2,1,3]-Benzoxadiazol-5-yl(3-oxa-8-azabicyclo[3.2.1]oct-8-yl)methanone]",17
2,"O=C(c1ccc2nonc2c1)N1C2CCCC1COC2 [Example 2, [2,1,3]-Benzoxadiazol-5-yl(3-oxa-9-azabicyclo[3.3.1]non-9-yl)methanone]",16
3,"O=C(c1ccc2nonc2c1)N1C2COCC1COC2 [Example 3, [2,1,3]-Benzoxadiazol-5-yl(3,7-dioxa-9-azabicyclo[3.3.1]non-9-yl)methanone]",15
